Measured values: US20240226125A1, “USE OF SOTAGLIFLOZIN FOR THE TREATMENT OF PATIENTS WITH TYPE 1 DIABETES MELLITUS” (priority 2019, published 2024)

System: adult patients with Type 1 Diabetes Mellitus who have inadequate glycemic control with insulin therapy
Assay: inTandem 1 and inTandem 2 pooled double-blind placebo-controlled clinical studies, efficacy
Type: in vivo, human
Conditions: for 2-hour postprandial plasma glucose (mg/dL) LS Mean Difference (SE) / A1C (%) LS Mean Difference (SE) / Body weight (kg) LS Mean Difference (SE) / DDS2 (score) LS Mean Difference (SE) / DTSQ (score) LS Mean Difference (SE) / Fasting plasma glucose (mg/dL) LS Mean Difference (SE) / SBP (mmHg) LS Mean Difference (SE) / Time in range (%) LS Mean Difference (SE): 400 mg vs placebo; for HbA1c change from Baseline, Week 24 Treatment Comparison, LS Mean / HbA1c change from Baseline, Week 52 Treatment Comparison, LS Mean: optimized insulin
[1] = 200 mg, Baseline BMI ≥27 kg/m^2, Week 24
[2] = 200 mg, Baseline BMI ≥27 kg/m^2, Week 52
[3] = Baseline BMI <27 kg/m^2, Week 24
[4] = Baseline BMI <27 kg/m^2, Week 52
[5] = Baseline BMI ≥27 kg/m^2, Week 24
[6] = Baseline BMI ≥27 kg/m^2, Week 52
[7] = 400 mg, Baseline BMI <27 kg/m^2, Week 24
[8] = 400 mg, Baseline BMI <27 kg/m^2, Week 52
[9] = 400 mg, Baseline BMI ≥27 kg/m^2, Week 24
[10] = 400 mg, Baseline BMI ≥27 kg/m^2, Week 52

SMILES: CCOc1ccc(Cc2cc([C@@H]3O[C@H](SC)[C@@H](O)[C@H](O)[C@H]3O)ccc2Cl)cc1 [sotagliflozin, (2S,3R,4R,5S,6R)-2-(4-chloro-3-(4-ethoxybenzyl)phenyl)-6-(methylthio)tetrahydro-2H-pyran-3,4,5-triol]
- A1C (%) LS Mean change (SE) [1]: −0.43 (0.034) %
- Body weight (kg) LS Mean change (SE) [1]: −1.93 (0.196) kg
- DDS2 (score) LS Mean change (SE) [1]: −0.5 (0.10) score
- DTSQ (score) LS Mean change (SE) [1]: 2.3 (0.26) score
- Fasting plasma glucose (mg/dL) LS Mean change (SE) [1]: −9.3 (3.33) mg/dL
- SBP (mmHg) LS Mean change (SE) [1]: −2.9 (0.64) mmHg
- Time in range (%) LS Mean change (SE) [1]: 6.254 (2.1983) %
- A1C (%) LS Mean change (SE) [2]: −0.24 (0.041) %
- Body weight (kg) LS Mean change (SE) [2]: −2.16 (0.254) kg
- SBP (mmHg) LS Mean change (SE) [2]: −1.7 (0.66) mmHg
- 2-hour postprandial plasma glucose (mg/dL) LS Mean Difference (SE) [3]: −86.1 (21.27) mg/dL
- A1C (%) LS Mean Difference (SE) [3]: −0.27 (0.063) %
- Body weight (kg) LS Mean Difference (SE) [3]: −2.55 (0.243) kg
- DDS2 (score) LS Mean Difference (SE) [3]: −0.5 (0.16) score
- DTSQ (score) LS Mean Difference (SE) [3]: 1.5 (0.43) score
- Fasting plasma glucose (mg/dL) LS Mean Difference (SE) [3]: −16.4 (5.78) mg/dL
- SBP (mmHg) LS Mean Difference (SE) [3]: −3.5 (0.98) mmHg
- Time in range (%) LS Mean Difference (SE) [3]: 6.335 (3.8492) %
- A1C (%) LS Mean Difference (SE) [4]: −0.21 (0.079) %
- Body weight (kg) LS Mean Difference (SE) [4]: −2.41 (0.324) kg
- SBP (mmHg) LS Mean Difference (SE) [4]: −3.7 (1.08) mmHg
- 2-hour postprandial plasma glucose (mg/dL) LS Mean Difference (SE) [5]: −21.7 (13.93) mg/dL
- A1C (%) LS Mean Difference (SE) [5]: −0.45 (0.045) %
- Body weight (kg) LS Mean Difference (SE) [5]: −3.32 (0.270) kg
- DDS2 (score) LS Mean Difference (SE) [5]: −0.7 (0.13) score
- DTSQ (score) LS Mean Difference (SE) [5]: 2.6 (0.35) score
- Fasting plasma glucose (mg/dL) LS Mean Difference (SE) [5]: −25.0 (4.53) mg/dL
- SBP (mmHg) LS Mean Difference (SE) [5]: −2.5 (0.87) mmHg
- Time in range (%) LS Mean Difference (SE) [5]: 15.051 (2.8562) %
- A1C (%) LS Mean Difference (SE) [6]: −0.38 (0.055) %
- Body weight (kg) LS Mean Difference (SE) [6]: −4.46 (0.353) kg
- SBP (mmHg) LS Mean Difference (SE) [6]: −3.6 (0.89) mmHg
- 2-hour postprandial plasma glucose (mg/dL) LS Mean change (SE) [7]: −69.6 (17.34) mg/dL
- A1C (%) LS Mean change (SE) [7]: −0.34 (0.048) %
- Body weight (kg) LS Mean change (SE) [7]: −1.91 (0.181) kg
- DDS2 (score) LS Mean change (SE) [7]: −0.4 (0.13) score
- DTSQ (score) LS Mean change (SE) [7]: 1.5 (0.33) score
- Fasting plasma glucose (mg/dL) LS Mean change (SE) [7]: −11.5 (4.32) mg/dL
- SBP (mmHg) LS Mean change (SE) [7]: −3.4 (0.75) mmHg
- Time in range (%) LS Mean change (SE) [7]: 4.164 (2.9683) %
- A1C (%) LS Mean change (SE) [8]: −0.20 (0.057) %
- Body weight (kg) LS Mean change (SE) [8]: −1.72 (0.238) kg
- SBP (mmHg) LS Mean change (SE) [8]: −1.0 (0.81) mmHg
- 2-hour postprandial plasma glucose (mg/dL) LS Mean change (SE) [9]: −39.5 (10.72) mg/dL
- A1C (%) LS Mean change (SE) [9]: −0.50 (0.034) %
- Body weight (kg) LS Mean change (SE) [9]: −2.98 (0.193) kg
- DDS2 (score) LS Mean change (SE) [9]: −0.5 (0.10) score
- DTSQ (score) LS Mean change (SE) [9]: 2.2 (0.26) score
- Fasting plasma glucose (mg/dL) LS Mean change (SE) [9]: −18.6 (3.28) mg/dL
- SBP (mmHg) LS Mean change (SE) [9]: −4.0 (0.64) mmHg
- Time in range (%) LS Mean change (SE) [9]: 13.133 (2.0244) %
- A1C (%) LS Mean change (SE) [10]: −0.38 (0.040) %
- Body weight (kg) LS Mean change (SE) [10]: −3.61 (0.249) kg
- SBP (mmHg) LS Mean change (SE) [10]: −3.2 (0.65) mmHg
- Weight, Percent Change from Baseline at Week 24, Treatment Comparison vs. PBO LS Mean (SE) (SOTA 200 mg vs PBO, Week 24): −2.17 (0.188), p < 0.001%
- HbA1c change from Baseline, Week 24 Treatment Comparison, LS Mean (SOTA 200 mg vs PBO, Week 24): −0.36%
- No Weight Gain at Week 52, HbA1c <7.0%: Absolute difference in % (SOTA vs. PBO) (SOTA 200 mg vs PBO, Week 52): 12.6%
- No Weight Gain at Week 52, reduction in HbA1c ≥0.5%: Absolute difference in % (SOTA vs. PBO) (SOTA 200 mg vs PBO, Week 52): 14.9%
- Weight, Percent Change from Baseline at Week 52, Treatment Comparison vs. PBO LS Mean (SE) (SOTA 200 mg vs PBO, Week 52): −3.21 (0.291), p < 0.001%
- HbA1c change from Baseline, Week 52 Treatment Comparison, LS Mean (SOTA 200 mg vs PBO, Week 52): −0.23%
- Weight, Percent Change (%) from Baseline at Week 24, LS Mean (SE) (SOTA 200 mg, Week 24): −1.70 (0.137), p < 0.001%
- No Weight Gain at Week 52: Percentage HbA1c <7.0% (SOTA 200 mg, Week 52): 21.8%
- No Weight Gain at Week 52: Percentage with absolute reduction in HbA1c ≥0.5% (SOTA 200 mg, Week 52): 23.7%
- Weight, Percent Change (%) from Baseline at Week 52, LS Mean (SE) (SOTA 200 mg, Week 52): −2.31 (0.208), p < 0.001%
- Weight, Percent Change from Baseline at Week 24, Treatment Comparison vs. PBO LS Mean (SE) (SOTA 400 mg vs PBO, Week 24): −3.02 (0.188), p < 0.001%
- HbA1c change from Baseline, Week 24 Treatment Comparison, LS Mean (SOTA 400 mg vs PBO, Week 24): −0.38%
- No Weight Gain at Week 52, HbA1c <7.0%: Absolute difference in % (SOTA vs. PBO) (SOTA 400 mg vs PBO, Week 52): 17.0%
- No Weight Gain at Week 52, reduction in HbA1c ≥0.5%: Absolute difference in % (SOTA vs. PBO) (SOTA 400 mg vs PBO, Week 52): 20.0%
- Weight, Percent Change from Baseline at Week 52, Treatment Comparison vs. PBO LS Mean (SE) (SOTA 400 mg vs PBO, Week 52): −4.24 (0.291), p < 0.001%
- HbA1c change from Baseline, Week 52 Treatment Comparison, LS Mean (SOTA 400 mg vs PBO, Week 52): −0.32%
- Weight, Percent Change (%) from Baseline at Week 24, LS Mean (SE) (SOTA 400 mg, Week 24): −2.55 (0.137), p < 0.001%
- No Weight Gain at Week 52: Percentage HbA1c <7.0% (SOTA 400 mg, Week 52): 26.1%
- No Weight Gain at Week 52: Percentage with absolute reduction in HbA1c ≥0.5% (SOTA 400 mg, Week 52): 28.8%
- Weight, Percent Change (%) from Baseline at Week 52, LS Mean (SE) (SOTA 400 mg, Week 52): −3.33 (0.209), p < 0.001%
- efficacy of sotagliflozin versus placebo by BMI subgroup (Week 24, BMI ≥27 kg/m^2 subgroups, A1C, body weight, time in range, DTSQ, DDS2): more pronounced
- A1C levels compared to placebo (primary endpoint) (both doses, after core treatment period and long-term extension period): statistically significant lower A1C levels
